The target in series [1] is T1, Cytochrome P450 2C8 (Homo sapiens, UniProt P10632).
T1 sequence (P10632 whole entry): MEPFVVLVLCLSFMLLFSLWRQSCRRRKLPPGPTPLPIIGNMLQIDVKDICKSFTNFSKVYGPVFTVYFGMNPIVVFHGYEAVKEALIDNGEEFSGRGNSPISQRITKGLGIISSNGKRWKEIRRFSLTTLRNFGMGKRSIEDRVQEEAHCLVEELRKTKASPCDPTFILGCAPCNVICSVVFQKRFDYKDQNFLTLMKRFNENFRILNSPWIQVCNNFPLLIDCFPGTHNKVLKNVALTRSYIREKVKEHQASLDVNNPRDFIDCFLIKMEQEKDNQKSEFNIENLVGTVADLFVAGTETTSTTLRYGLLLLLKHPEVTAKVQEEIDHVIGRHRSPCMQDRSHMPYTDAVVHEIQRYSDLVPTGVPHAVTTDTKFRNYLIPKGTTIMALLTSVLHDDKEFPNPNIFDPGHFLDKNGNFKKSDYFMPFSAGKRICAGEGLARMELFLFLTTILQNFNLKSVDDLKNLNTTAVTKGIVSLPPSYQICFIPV
Nature of the series: Linear mixed inhibition of CYP2C8 in human liver microsomes assessed as paclitaxel 6-hydroxylation after 20 mins by LC-MS/MS analysis. The format is ADME.

Series [2] addresses UDP-glucuronosyltransferase 1A8 (Homo sapiens, UniProt Q9HAW9). Nature of the series: Drug metabolism assessed as human recombinant UGT1A8-mediated compound formation treated with AMG 853 at 10 uM after 30 mins by LC-MS/MS analysis. Format: ADME. The note with it: recombinant enzyme, 0.5 h.
Series [3] concerns the target T2, UDP-glucuronosyltransferase 1A1 (Homo sapiens, UniProt P22309).
T2 sequence (P22309 whole entry): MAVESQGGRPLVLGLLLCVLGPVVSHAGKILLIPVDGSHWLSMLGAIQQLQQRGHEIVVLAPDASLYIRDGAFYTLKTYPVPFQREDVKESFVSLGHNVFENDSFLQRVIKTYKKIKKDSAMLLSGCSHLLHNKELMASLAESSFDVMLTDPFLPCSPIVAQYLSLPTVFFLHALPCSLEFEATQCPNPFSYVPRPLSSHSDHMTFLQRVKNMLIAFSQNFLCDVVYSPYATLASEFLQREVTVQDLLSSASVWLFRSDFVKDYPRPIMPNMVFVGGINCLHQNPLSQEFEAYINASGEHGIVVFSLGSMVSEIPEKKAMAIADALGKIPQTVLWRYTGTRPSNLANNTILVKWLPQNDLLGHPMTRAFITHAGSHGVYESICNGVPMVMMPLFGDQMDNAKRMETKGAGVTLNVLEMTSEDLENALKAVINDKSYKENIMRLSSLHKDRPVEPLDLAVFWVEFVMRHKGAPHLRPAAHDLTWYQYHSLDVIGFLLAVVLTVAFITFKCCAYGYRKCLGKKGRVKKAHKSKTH
Nature of the series: Drug metabolism assessed as human recombinant UGT1A1-mediated compound formation treated with AMG 853 after 45 mins by LC-MS/MS analysis in presence of UDPGA. The format is ADME. As to conditions: recombinant enzyme, 0.75 h.

Series [4] addresses T1, Cytochrome P450 2C8. Nature of the series: Competitive inhibition of CYP2C8 in human liver microsomes assessed as rosiglitazone demethylation after 20 mins by LC-MS/MS analysis. The format is ADME.
Series [5] can be described thus: Cmax in healthy human at 50 mg, po in presence of ketoconazole. The format is ADME, organism-based. The note with it: in vivo. Further details: dose 50 mg, route oral.
For series [6], the target named is UDP-glucuronosyltransferase 2B17 (Homo sapiens, UniProt O75795). In words: Drug metabolism assessed as human recombinant UGT2B17-mediated (2S,3S,4S,5R,6S)-6-(2-(4-(4-(tert-butylcarbamoyl)-2-(2-chloro-4-cyclopropylphenylsulfonamido)phenoxy)-5-chloro-2-fluorophenyl)acetoxy)-3,4,5-trihydroxytetrahydro-2H-pyran-2-carboxylic acid formation at 10 uM after 30 mins by LC-MS/MS analysis. The format is ADME. As to conditions: recombinant enzyme, 0.5 h.

In a further series the target is Cytochrome P450 3A5 (Homo sapiens, UniProt P20815). In words: Drug metabolism assessed as recombinant CYP3A5 (unknown origin)-mediated 2-(5-chloro-4-(2-(2-chloro-4-cyclopropylphenylsulfonamido)-4-(1-hydroxy-2-methylpropan-2-ylcarbamoyl)phenoxy)-2-fluorophenyl)acetic acid formation at 10 uM after 30 mins by LC-MS/MS analysis. Format: ADME. As to conditions: recombinant enzyme, 0.5 h.

Another series has as its target Cytochrome P450 3A7 (Homo sapiens, UniProt P24462). Nature of the series: Drug metabolism assessed as recombinant CYP3A7 (unknown origin)-mediated 2-(5-chloro-4-(2-(2-chloro-4-cyclopropylphenylsulfonamido)-4-(1-hydroxy-2-methylpropan-2-ylcarbamoyl)phenoxy)-2-fluorophenyl)acetic acid formation at 10 uM after 30 mins by LC-MS/MS analysis. The format is ADME. The note with it: recombinant enzyme, 0.5 h.

Each structure is given as a SMILES string.

Sequence of UDP-glucuronosyltransferase 1A8 (Q9HAW9 whole entry): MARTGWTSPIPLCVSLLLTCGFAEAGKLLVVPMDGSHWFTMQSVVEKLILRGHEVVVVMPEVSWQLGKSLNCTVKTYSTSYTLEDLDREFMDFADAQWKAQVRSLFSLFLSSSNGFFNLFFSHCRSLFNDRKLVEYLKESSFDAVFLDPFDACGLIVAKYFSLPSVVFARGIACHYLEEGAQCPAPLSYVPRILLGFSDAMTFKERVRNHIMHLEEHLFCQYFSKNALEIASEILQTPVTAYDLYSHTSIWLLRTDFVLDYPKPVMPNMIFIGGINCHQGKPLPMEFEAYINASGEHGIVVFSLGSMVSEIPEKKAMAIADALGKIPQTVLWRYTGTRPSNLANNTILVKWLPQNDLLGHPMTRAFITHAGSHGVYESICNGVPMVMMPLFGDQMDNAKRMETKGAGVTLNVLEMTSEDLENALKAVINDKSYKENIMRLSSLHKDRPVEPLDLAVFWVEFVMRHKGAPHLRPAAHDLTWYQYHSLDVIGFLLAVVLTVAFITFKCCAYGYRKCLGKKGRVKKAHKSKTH
Sequence of Cytochrome P450 3A7 (P24462 whole entry): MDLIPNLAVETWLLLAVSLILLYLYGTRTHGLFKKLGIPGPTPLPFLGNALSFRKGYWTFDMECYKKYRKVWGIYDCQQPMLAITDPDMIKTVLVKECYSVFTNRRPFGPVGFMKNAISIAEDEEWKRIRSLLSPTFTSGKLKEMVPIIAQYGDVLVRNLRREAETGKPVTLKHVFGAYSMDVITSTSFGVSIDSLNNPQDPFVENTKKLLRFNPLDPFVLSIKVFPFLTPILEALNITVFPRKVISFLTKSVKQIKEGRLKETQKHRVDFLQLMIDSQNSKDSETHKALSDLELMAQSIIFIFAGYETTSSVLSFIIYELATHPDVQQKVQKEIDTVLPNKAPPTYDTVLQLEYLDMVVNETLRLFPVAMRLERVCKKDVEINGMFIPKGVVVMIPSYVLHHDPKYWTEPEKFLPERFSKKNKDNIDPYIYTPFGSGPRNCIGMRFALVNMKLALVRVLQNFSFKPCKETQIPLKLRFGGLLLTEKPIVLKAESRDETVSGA
Sequence of UDP-glucuronosyltransferase 2B17 (O75795 whole entry): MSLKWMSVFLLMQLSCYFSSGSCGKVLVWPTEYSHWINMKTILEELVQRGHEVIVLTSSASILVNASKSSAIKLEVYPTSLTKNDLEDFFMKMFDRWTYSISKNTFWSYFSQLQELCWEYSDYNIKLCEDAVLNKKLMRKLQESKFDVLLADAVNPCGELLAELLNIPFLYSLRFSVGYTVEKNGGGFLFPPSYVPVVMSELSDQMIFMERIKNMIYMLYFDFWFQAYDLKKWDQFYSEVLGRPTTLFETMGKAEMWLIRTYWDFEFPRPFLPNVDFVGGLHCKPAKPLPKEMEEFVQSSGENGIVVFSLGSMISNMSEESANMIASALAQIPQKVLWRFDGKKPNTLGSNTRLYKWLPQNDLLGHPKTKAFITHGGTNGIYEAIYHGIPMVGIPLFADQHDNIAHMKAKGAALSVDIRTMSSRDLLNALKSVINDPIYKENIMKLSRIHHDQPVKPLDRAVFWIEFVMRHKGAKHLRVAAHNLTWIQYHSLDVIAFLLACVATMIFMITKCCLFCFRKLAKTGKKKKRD
Sequence of Cytochrome P450 3A5 (P20815 whole entry): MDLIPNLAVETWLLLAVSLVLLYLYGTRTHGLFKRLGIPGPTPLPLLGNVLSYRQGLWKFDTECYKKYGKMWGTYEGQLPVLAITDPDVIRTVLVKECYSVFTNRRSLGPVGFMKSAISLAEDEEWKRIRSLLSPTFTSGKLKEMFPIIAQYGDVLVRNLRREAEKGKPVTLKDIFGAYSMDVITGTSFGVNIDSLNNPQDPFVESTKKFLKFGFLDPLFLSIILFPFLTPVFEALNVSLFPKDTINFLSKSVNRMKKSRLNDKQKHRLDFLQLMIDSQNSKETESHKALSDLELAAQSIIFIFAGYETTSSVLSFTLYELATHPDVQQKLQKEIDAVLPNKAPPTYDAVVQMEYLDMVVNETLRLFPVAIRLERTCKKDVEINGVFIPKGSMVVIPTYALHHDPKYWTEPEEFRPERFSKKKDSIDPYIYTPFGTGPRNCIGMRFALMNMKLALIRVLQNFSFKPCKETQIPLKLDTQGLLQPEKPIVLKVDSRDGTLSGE

Turning to `CC(C)(C)NC(=O)c1ccc(Oc2cc(F)c(CC(=O)O[C@@H]3O[C@H](C(=O)O)[C@@H](O)[C@H](O)[C@H]3O)cc2Cl)c(NS(=O)(=O)c2ccc(C3CC3)cc2Cl)c1`, at Cytochrome P450 2C8 [1], the Ki came out at 2.7 µM. Moreover, in series [2], the Drug metabolism entry was “metabolite_detected”. For the same compound, in series [3], the S50 is 218.4 µM and the Vmax is listed as 3.45 pmol/min/mg.

For `CC(C)(C)NC(=O)c1ccc(Oc2cc(F)c(CC(=O)O)cc2Cl)c(NS(=O)(=O)c2ccc(C3CC3)cc2Cl)c1` [VIDUPIPRANT], the inhibitory constant (Ki) on Cytochrome P450 2C8 [4] was 6 µM. Further, in series [5], the peak concentration (Cmax) was 270 ng/mL. Also, the Drug metabolism result is on record as “metabolite_not_detected” in series [6], “metabolite_detected” at Cytochrome P450 3A5 and “metabolite_detected” on Cytochrome P450 3A7.

A word on the Ki: it is a dissociation constant, usually derived from enzyme kinetics or from competition with a known ligand. As a reminder, the Vmax is the rate approached at saturating substrate. A word on the Cmax: it is the maximum level reached in the sampled fluid or tissue.

For the origin of these results see ChEMBL document CHEMBL3526017, “Predicting the drug interaction potential of AMG 853, a dual antagonist of the D-prostanoid and chemoattractant receptor-homologous molecule expressed on T helper 2 cells receptors” (Drug Metab Dispos, 2012).
